Non-standard residues stand in square brackets, D forms with d. Residues, ends and D or L forms follow the SMILES beside them. No end group written: not given here. *: point of attachment. 4Abz = Nc1ccc(C(=O)O)cc1; NHOH = ON*
Columns and labels:
[1] = Angiogenesis in adventitia of abdominal aorta of ApoE-/- mice (CD31 whole mount immunostaining); format: in vivo, mouse; settings: 15 weeks
Description: Angiogenesis may promote the progression of atherosclerosis and contribute to plaque instability and rupture. […] Angiogenesis was therefore evaluated in the adventitia of aortas from apoE−/− mice fed a high fat diet for 15 weeks and treated with either the MMP-1 collagenase inhibitor, MMP Inh-1 (FN-439) or the PAR1 antagonist, P1pal-7. The mice were then anesthetized with Ketamine/Xylazine and pressure fixed with 10% formalin. The abdominal aorta was isolated, removed and fixed for 1 hour with 10% formalin and adventitial fat was removed. The abdominal aorta were then whole mount immunostained for CD31, a marker for endothelial cells and 3D projection images were constructed from multiple confocal sections using the following procedure. Briefly, the tissue was blocked for 1 hour with 5% goat serum in Tris buffered saline containing 0.3% Triton-X 100 (TBST) and incubated overnight at 4° C. with primary antibody diluted 1:1000 in TBST. After several washes with TBST, the tissue was incubated with fluorescently tagged secondary antibody diluted in TBST for 4 hours. The tissue was washed and post-fixed with 4% paraformaldehyde for 10 minutes. The aorta was then cut lengthwise and splayed open onto a microscope slide with the adventitial side up. The tissue was whole mounted with Vectashield mounting media and imaged using a Leica TCS SP2 confocal microscope […]. Confocal images were constructed into 3D projections of Z-stacks. Quantification of images was performed using NIH ImageJ. Antibodies used were: hamster anti-mouse PECAM-1 (Chemicon) and Cy3-anti-hamster (Jackson Immunolabs).

[2] = Atherosclerotic lesion area in ApoE-deficient mice (en face Oil-Red-O); format: in vivo, mouse; settings: high-fat diet 15 weeks, s.c. 6 days a week, FN-439 5 mg/kg, P1pal-7 10 mg/kg; for mean lesion area, abdominal section of the aorta: vehicle 8.9%; for mean lesion area, aortic section, % of the total area: vehicle 12.9%
Description: Twenty five (25) 86.129P2-Apoe^fm1Unc/J mice, 7 weeks old, were separated into 3 groups and fed ad libitum with high-fat/high-cholesterol diet (21% fat, 0.21% cholesterol) (0120798, Research Diets) for 15 weeks. Group I included 8 mice (n=8) was used as a control group and received Vehicle (20% DMSO in 1×PBS). Group II included 8 mice (n=8) that were treated with MMP Inhibitor I FN-439 (Calbiochem) at a dose of 5 mg/kg. Lastly, group III included 9 mice (n=9) treated with 10 mg/kg of the P1pal-7 pepducin lipopeptide. […] P1pal-7 is a cell-penetrating pepducin lipopeptide based on the third intracellular loop (i3) of human PAR1 and acts as an antagonist of PAR1 signaling. All mice were injected subcutaneously with 100 μl of the corresponding treatment for 6 days a week. At the end of the treatment, and after a 4 hours fasting, the mice were anesthetized with ketamine/xylazine and pressure-fixed with 10% formalin. The heart and the aorta of each mouse were isolated, removed and fixed for 2 days in 10% formalin and adventitial fat was removed. The abdominal area of the aorta was cut and used for whole mount immunohistochemistry. The “aortic arch/thoracic” area and the rest of the “abdominal/iliac” area of the aorta were cut open and pinned on dissecting black wax and used for “en face” staining with Oil-Red-O.
To study the extent of artherosderotic plaque formation, pinned aortas were first fixed in 10% formalin and kept in 1×PBS. The aorta of the mice were then subjected to “en face” staining with Oil-Red-O, which stains lipids red. Briefly, the PBS was drained from the samples and the stain solution was added for 45 min. The stain was drained and the samples were washed first with 70% Ethanol and then with water, in order to remove the background. Digital pictures of the stained aortas were taken and the MetaXpress software (Molecular Devices) was used to define and quantify the total aortic area as well as the lesion areas. The ratio of lesion area to the total aortic area was calculated for the “aortic arch/thoracic” and the “abdominal/iliac” area. The aorta of each mouse was isolated and separated into three sections. The abdominal section (before and after the renal arteries) was separated and used for whole mount immunohistochemistry. The remaining sections were the one from the aortic arch to the mesenteric artery (aortic) and the other from after the renal arteries to the iliac arteries (abdominal). These sections of the aorta were used for the “en face” staining and the estimation of the atherosclerotic lesion area.

[3] = Collagen-induced systemic platelet activation (thrombocytopenia) in guinea pigs; format: in vivo, guinea pig; settings: i.v. P1pal-7 3 mg/kg or FN-439 10 mg/kg, 10 min before 200 μg collagen
Description: Animal experiments were performed in accordance with the National Institutes of Health guidelines and approved by the Tufts Medical Center Institutional Animal Care and Use Committee. 2-4 week old Hartley guinea pigs (170-260 g) were anesthetized by an i.p. injection of xylazine (10 mg/kg) plus ketamine (50 mg/kg) and then catheterized via the left jugular vein and injected (200 μL) with either vehicle (20% DMSO/80% water), P1pal-7 or FN-439. For determination of collagen-dependent systemic platelet activation, 10 min after administration of inhibitors, 200 μg collagen in 200 μL of PBS was delivered via the jugular vein. Ten min after collagen injection, blood was collected into sodium citrate (1% v/v final) from the contralateral jugular vein and platelet counts were measured with a Hemavet850. The enzymatic activity of active MMP-1 in supernatants and platelet lysates was determined using DQ collagen I as fluorogenic substrate in the presence or absence of 3 μM FN-439, or 20 μg/ml of control IgG or a MMP-1 blocking Ab (preincubated for 2 h at 37° C.), as indicated.
Intravascular platelet activation was then induced by an intravenous injection of collagen into the guinea pigs. Vehicle, P1pal-7 (3 mg/kg) or FN-439 (10 mg/kg) were delivered i.v. to the internal jugular vein of guinea pigs (n=6) and allowed to circulate for 10 min. […]

[4] = test system: platelets; assay: Platelet thrombus formation on collagen surface under arterial flow, heparin-anticoagulated whole blood; format: cell-based, human; settings: heparin 10 U/mL; shear rate 1,000 s-1; FN-439 3 μM, RWJ-56110 1 μM, pepducins 3 μM, aspirin 1 mM
Description: Following incubation with inhibitors, the blood was perfused over a glass slide coated with fibrillar collagen type I.
A flow chamber (Glycotech) with Type-I fibrillar collagen-coated glass slides was mounted on the stage of an IMT-2 inverted microscope (Olympus) equipped with Retiga 1300 digital camera (QImaging) and 40× objective. One of the flow chamber inlets was connected to a syringe pump (Harvard Apparatus) calibrated to create a shear rate of 1,000^s-1. The whole blood pretreated with the various pharmacologic inhibitors was then perfused over the collagen-coated glass slide. After 2-15 min of perfusion, blood was removed from the flow chamber by gentle displacement with PIPES buffer and images of 8-10 fields were acquired using OpenLab software (Improvision). Acquired images were further analyzed using NIH Image 1.63 software. Images were first sharpened and the edges of separate platelets and platelet aggregates were determined. Following the adjustment of threshold, images were converted into the binary format, and the particle analysis function was activated to highlight the regions covered by platelets with the sensitivity set to one single adherent thrombocyte. For the conversion of pixels into square micrometers, a calibration curve was built using 2.5, 6, 20, 25, and 45 μm polystyrene beads (Polyscience) using acquisition conditions identical to the experimental. The mean area of formed thrombus was determined at 7 min. Area measurements in FIG. 6B represent the mean±s.e. of three separate experiments from five different blood donors.

Row | Compound | amount of CD31-positive vessels [1] | number of branch points per vessel area [1] | number of vascular bundles in the adventitia of the aorta [1] | mean lesion area, abdominal section of the aorta [2] | mean lesion area, aortic section, % of the total area [2] | protection against collagen-induced thrombocytopenia / intravascular platelet activation [3] | attenuation of growth rate and size of platelet aggregate strings [4]
1 | CC(C)C[C@@H](NC(=O)[C@@H]1CCCN1C(=O)CNC(=O)c1ccc(N)cc1)C(=O)N[C@H](C)C(=O)NO [FN-439] (H-[4Abz]GP[dL][dA]-{NHOH}) | significantly reduced | significantly inhibited | significantly reduced | 4.1% | 10.7% | significant protection | ~75%
2 | P1pal-7: PAR1 i3 loop pepducin lipopeptide, KKSRALF (SEQ ID NO. 2), palmitate (also: palmitate, site not given here) | significantly reduced | significantly inhibited | significantly reduced | 2.3% | 8.1% | almost completely protected | ~75%

Reference: patent US9376499B2, “PAR-1 activation by metalloproteinase-1 (MMP-1)” (Tufts Medical Center, Inc., priority 2009, dated 2016)
